Results: patent publication US12247037B2, “1-(2,6-diazaspiro[3.3]heptan-6-yl)-5,6-dihydro-4h-benzo[f][1,2,4]triazolo[4,3-A][1,4]diazepine derivatives and related compounds as vasopressin antagonists for the treatment of neuro-psychological disorders” (Neumora Therapeutics, Inc., priority 2018, dated 2025)
Read-outs that look alike come from different tables or passages of the source.

Experiments:
[1] = target: T1, human Arginine Vasopressin Receptor 1a (AVPR1a) (Homo sapiens, UniProt P37288); experiment: Vasopressin V1a receptor antagonist assay (FLIPR calcium, CHO-AVPR1a cells); type: cell-based
T1 construct: expressed in transfected cells; host or cells: CHO (Chinese Hamster Ovary) cells, kept under G418 selection

[2] = target: T2, human Arginine Vasopressin Receptor V2 (AVPR2) (Homo sapiens, UniProt P30518); experiment: Vasopressin V2 receptor antagonist assay (TR-FRET cAMP, 1321N1 cells); type: cell-based
T2 construct: host or cells: 1321N1 cells (cAMPZen V2 assay ready cells)

[3] = test system: MDR1 (P-glycoprotein); experiment: in vitro; settings: dog, MDCK-MDR1
[4] = target: T3, human Arginine Vasopressin Receptor 1b (AVPR1b) (Homo sapiens, UniProt P47901); experiment: Vasopressin V1b receptor antagonist assay (FLIPR calcium, CHO-AVPR1b cells); type: cell-based; settings: antagonism of AVP (EC80) response
T3 construct: expressed in transfected cells; host or cells: CHO (Chinese Hamster Ovary) cells, kept under G418 selection
T3 sequence (P47901 1-424): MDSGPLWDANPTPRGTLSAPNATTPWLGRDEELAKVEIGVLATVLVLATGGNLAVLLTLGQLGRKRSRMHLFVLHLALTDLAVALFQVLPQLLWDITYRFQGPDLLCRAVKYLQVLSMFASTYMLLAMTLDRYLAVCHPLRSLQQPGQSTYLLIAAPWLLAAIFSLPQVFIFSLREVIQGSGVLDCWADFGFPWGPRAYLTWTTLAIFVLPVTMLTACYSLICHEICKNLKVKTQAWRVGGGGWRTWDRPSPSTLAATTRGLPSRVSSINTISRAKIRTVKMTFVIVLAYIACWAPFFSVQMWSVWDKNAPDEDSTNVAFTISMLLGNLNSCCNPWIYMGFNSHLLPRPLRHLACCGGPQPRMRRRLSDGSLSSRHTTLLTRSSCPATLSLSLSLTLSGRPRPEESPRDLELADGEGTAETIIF
Procedure: The purpose of the assay is to determine the inhibitory effect of synthesized compounds on the Vasopressin V1b receptor. The assay is performed in Chinese Hamster Ovary (CHO) cells expressing the human Arginine Vasopressin Receptor 1b (AVPR1b). Arginine Vasopressin (AVP) evokes an increase in intracellular calcium in CHO-AVPR1b cells which is measured in a fluorescence assay on the FLIPR^TETRA using calcium sensitive dyes. Test compounds are assessed for their ability to affect the magnitude of the response to AVP, with antagonists showing a concentration-dependent reduction in the AVP-mediated fluorescence.
CHO-AVPR1b cells are maintained in routine culture in T175 Flasks at 37° C., 5% CO2. […]
Cells are harvested from T175 flasks when they are 80-90% confluent by first washing the cell monolayer with PBS and then dissociated using trypsin 0.05%/EDTA (3 mL for a T175 Flask). […] To the cell suspension, 10 ml of growth media is added and the cell density determined using the Vi-Cell automated cell counter. […]
At the start of each assay day, the potency of AVP is assessed and an EC80 concentration determined for subsequent compound profiling. […] Changes in fluorescence are monitored for 3 min after both additions on the FLIPR^TETRA using 470-495 nm excitation and 515-575 nm emission wavelengths. […]

[5] = target: T4, human Oxytocin Receptor (hOTR) (Homo sapiens, UniProt P30559); experiment: Oxytocin receptor antagonist assay (FLIPR calcium, CHEM-1-hOTR cells); type: cell-based; settings: antagonism of oxytocin (EC80) response; read-out: OT IC50
T4 construct: host or cells: CHEM-1 cells (ready-to-assay frozen cells)
T4 sequence (P30559 1-389): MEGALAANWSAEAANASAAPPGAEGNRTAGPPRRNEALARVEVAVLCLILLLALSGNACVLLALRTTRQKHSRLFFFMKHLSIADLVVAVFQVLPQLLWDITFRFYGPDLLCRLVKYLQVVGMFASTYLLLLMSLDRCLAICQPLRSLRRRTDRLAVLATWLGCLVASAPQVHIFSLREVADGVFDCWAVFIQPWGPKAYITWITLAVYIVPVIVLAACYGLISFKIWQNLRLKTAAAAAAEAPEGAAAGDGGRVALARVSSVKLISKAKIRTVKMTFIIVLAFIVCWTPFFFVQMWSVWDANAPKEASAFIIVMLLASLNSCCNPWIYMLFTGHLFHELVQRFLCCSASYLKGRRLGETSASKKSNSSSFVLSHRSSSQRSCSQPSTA
Procedure: This assay is performed in CHEM-1 cells expressing the human Oxytocin Receptor (hOTR) to determine the inhibitory effect of the compounds of the invention on the human Oxytocin receptor. Oxytocin evokes an increase in intracellular calcium in CHEM-1-hOTR cells which is measured in a fluorescence assay on the FLIPR^TETRA using calcium sensitive dyes. Test compounds are assessed for their ability to affect the magnitude of the response to oxytocin, with antagonists showing a concentration-dependent reduction in the oxytocin-mediated fluorescence.
CHEM-1-hOTR ready is used to assay frozen cells (Eurofins #HTS090RTA) which are supplied with a proprietary Media Component.
Day 1 of the assay: Cells are thawed in a 37° C. water bath and diluted with the supplied Media Component to a final volume of 10 ml. The cell suspension is centrifuged at 1000 rpm for 3 min at room temperature and the supernatant is discarded. […]
Day 2: At the start of each assay day the potency of oxytocin is assessed and an EC80 concentration is determined for subsequent compound profiling. […] Changes in fluorescence are monitored for 3 min after both additions on the FLIPR^TETRA using 470-495 nm excitation and 515-575 nm emission wavelengths. […] At the end of the incubation period 10 μl of oxytocin in assay buffer containing 0.1% BSA is added at the previously determined EC80 concentration. […]

[6] = in vitro; settings: dog, MDCK

T1 sequence (P37288 whole entry): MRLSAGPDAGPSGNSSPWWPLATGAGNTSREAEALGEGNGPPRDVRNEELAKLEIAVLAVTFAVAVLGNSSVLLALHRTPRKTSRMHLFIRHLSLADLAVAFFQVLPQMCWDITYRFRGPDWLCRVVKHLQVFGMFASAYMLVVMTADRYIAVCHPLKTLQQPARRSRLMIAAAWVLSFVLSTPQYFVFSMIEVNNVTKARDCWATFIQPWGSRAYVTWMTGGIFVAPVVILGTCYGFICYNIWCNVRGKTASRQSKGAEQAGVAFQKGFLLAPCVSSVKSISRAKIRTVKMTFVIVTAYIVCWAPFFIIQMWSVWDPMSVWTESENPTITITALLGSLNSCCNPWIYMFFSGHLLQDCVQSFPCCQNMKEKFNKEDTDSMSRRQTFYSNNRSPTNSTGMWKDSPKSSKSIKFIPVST
T2 sequence (P30518 whole entry): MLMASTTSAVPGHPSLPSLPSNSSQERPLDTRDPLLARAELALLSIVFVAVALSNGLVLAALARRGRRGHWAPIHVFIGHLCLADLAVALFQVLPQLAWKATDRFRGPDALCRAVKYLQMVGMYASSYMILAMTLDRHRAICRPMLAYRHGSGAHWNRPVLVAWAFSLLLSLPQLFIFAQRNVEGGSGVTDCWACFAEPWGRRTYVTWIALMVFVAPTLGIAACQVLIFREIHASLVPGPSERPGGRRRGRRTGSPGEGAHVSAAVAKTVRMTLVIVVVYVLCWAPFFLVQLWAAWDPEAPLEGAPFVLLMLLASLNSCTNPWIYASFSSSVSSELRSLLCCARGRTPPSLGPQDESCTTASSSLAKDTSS

| IC50 ([1]; antagonism of AVP (EC80) response, read-out: V1a IC50) | IC50 [4] | IC50 [5] | Papp A→B [6] | SMILES | IC50 [1] | IC50 [2] | Papp A→B [3] |
| --- | --- | --- | --- | --- | --- | --- | --- |
|  |  |  |  | Clc1ccc2c(c1)CN(C1CC1)Cc1nnc(N3CC4(CN(c5ncccn5)C4)C3)n1-2 [Compound No. 225, 8-chloro-5-cyclopropyl-1-(6-(pyrimidin-2-yl)-2,6-diazaspiro[3.3]heptan-2-yl)-5,6-dihydro-4H-benzo[f][1,2,4]triazolo[4,3-a][1,4]diazepine] | < 100 nM | > 1000 nM | > 20 ×10⁻⁶ cm/s |
| < 100 nM | > 1000 nM | > 1000 nM | 10 to 20 ×10⁻⁶ cm/s | CN1Cc2cc(Cl)ccc2-n2c(nnc2[C@H]2CC[C@H](Oc3ccccn3)CC2)C1 [balovaptan] |  |  | > 20 ×10⁻⁶ cm/s |
